Results reported in PubChem BioAssay (NCI).
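Exposure lasted 48 hours, with cells grown in 96-well plates and compounds tested at five concentrations. GI50 marks 50% less growth. TGI: concentration producing complete growth inhibition.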

Tests used:
Assay in all cases: NCI-60 cell line screen, 48 h
A549 NSCLC = test system: A549 NSCLC
NCI-H522 lung = test system: NCI-H522 lung
MDA-MB-231 breast = test system: MDA-MB-231 breast
IGROV1 ovarian = test system: IGROV1 ovarian
RXF 393 renal = test system: RXF 393 renal
UACC-62 melanoma = test system: UACC-62 melanoma
SK-MEL-2 melanoma = test system: SK-MEL-2 melanoma
SR leukemia = test system: SR leukemia
SK-MEL-5 melanoma = test system: SK-MEL-5 melanoma
T-47D breast = test system: T-47D breast

SMILES	TGI (A549 NSCLC) [µM]	TGI (NCI-H522 lung) [µM]	TGI (MDA-MB-231 breast) [µM]	TGI (IGROV1 ovarian) [µM]	TGI (RXF 393 renal) [µM]	TGI (UACC-62 melanoma) [µM]	TGI (SK-MEL-2 melanoma) [µM]	TGI (SR leukemia) [µM]	TGI (SK-MEL-5 melanoma) [µM]	TGI (T-47D breast) [µM]	GI50 (MDA-MB-231 breast) [µM]	GI50 (T-47D breast) [µM]
O=C1/C(=C/c2ccccc2)CCc2ccc(Cl)nc21	38.4	10.4	40.6	17.7	24.8	22.8	37.8	9.01	20.1	18.6		
C/C(=N\NC(N)=O)C(CN1CCCCC1)C(c1ccccc1)c1c(O)c2ccccc2oc1=O (configuration not stated)	> 100	> 100	> 100	> 100	> 100	> 100	> 100	> 100	> 100	> 100	> 100	> 100
O=C1NC(=S)N/C1=C/c1ccccc1O	> 100	> 100	> 100	> 100	> 100	> 100	> 100	> 100	> 100	> 100		
C/C(=C/CO[Si](C)(C)C(C)(C)C)C(=O)N(C)c1ccccc1I	32.4	31.5	28.3	29.9	31.9	28	30.5	51.7	29	35.9		
CC1=C(C(=O)OCCc2ccc([N+](=O)[O-])cc2)C(c2ccccc2[N+](=O)[O-])C(C(=O)OC(C)C)=C(C)N1 (configuration not stated)	> 100	7.82	> 100	> 100	35.9	58.4	40.9	> 100	5.14	> 100		
Cc1cc2ccccc2n1CC(=O)NCC(C)C	> 100	> 100	> 100	> 100	> 100	> 100	> 100	> 100	> 100	> 100		
CC(=O)/C=C/C=C(\C)CC/C=C(\C)CC(C)C	> 100	42.6	> 100	> 100	30.3	49.2	42.3	39.1	35.5	46		
N#CCCC1C(C#N)C2CC1C1C3C=CC(C3)C21 (configuration not stated)	> 100	> 100	> 100	> 100	> 100	> 100	> 100	> 100	> 100	> 100		
C#CCNC(Cc1cnc[nH]1)C(=O)O (configuration not stated)	> 100	> 100	> 100	> 100	> 100	> 100	> 100	> 100	> 100	> 100		
O=C(/C=C/c1ccc(-c2ccccc2[N+](=O)[O-])o1)NCc1ccc(C(=O)NCCc2ccccc2)cc1	> 100	> 100	> 100	> 100	> 100	> 100	> 100	> 100	> 100	> 100		
OC1CCCC1C(O)(C(F)(F)F)C(F)(F)F (configuration not stated)	> 100	> 100	> 100	> 100	> 100	> 100	> 100	> 100	> 100	> 100		
O=C(C1=C(C(=O)c2ccccc2)SC2(S1)C(C(=O)c1ccccc1)=C(C(=O)c1ccccc1)Sc1c2ssc1=O)c1ccccc1	> 100	85.5	> 100	> 100	> 100	44.9	> 100	> 100	> 100	> 100		
CCC1(CC)C(=O)CC[C@@]2(C)C1=CC[C@H]1[C@@H]3CC[C@H](O)[C@@]3(C)CC[C@@H]12	28.9	78.6	> 100	> 100	> 100	> 100	> 100	31.8	> 100	99.7		
COc1ccc(/C=C/c2cc(O)cc(OC)c2)cc1	> 100	> 100	> 100	> 100	> 100	> 100	> 100	> 100	> 100	> 100		
Cc1ccc(S(=O)(=O)n2cncc2CO)cc1	> 100	> 100	> 100	> 100	> 100	> 100	> 100	> 100	> 100	> 100		
Cc1nnc2cc(C(=O)O)c3ccccc3n2c1=O	> 10	> 10	> 10	> 10	> 10	> 10	> 10	> 10	> 10	> 10		
Cc1csc2c1C(=O)c1ccsc1C2=O	3.55	5.16	11	11.8	11.8	3.07	4.51	> 45	1.82	4.99		
